Drawing on patent US20210087159A1, “TETRAHYDROCANNABINOLIC- CA[…] DERIVATIVES AND USES THEREOF” (AL&AM […]., priority 2018, published 2021), this text covers Inhibition and IC50 for two compounds.

Test in all cases: CellTiter-Glo cell viability assay, cancer cell cytotoxicity/anti-proliferation panel (Chempartner)
Common to all, as to assay type: cell-based
(ATP-based viability assays read luminescence as a measure of living cells.)

In assay [1] the test system is AsPC-1, pancreas, ductal carcinoma. To be noted: for Inhibition: AsPC-1, 72 hours, compounds 10 μM starting, STS 2 μM starting, 10-pt, 3-fold dilution; for IC50: Homo sapiens, ASPC1, 72 h, read-out: IC50 (absolute IC50).
The subject of assay [2] is TE-6 RIKEN esophagus, carcinoma.
In assay [3] the test system is Caco-2 ATCC colon adenocarcinoma.
Assay [4] has as its system PC-3 ATCC prostate adenocarcinoma.
The mark [5] stands for this setting: 72 h, read-out: IC50 (absolute IC50).

One may read the Inhibition as how much of the control response was suppressed. Low values mean a weak effect, high ones a strong effect. For orientation: IC50 means the concentration needed to halve the response being measured.

Regarding `CCCCCc1cc2c(c(O)c1C(=O)NCCN(C)C)[C@@H]1C=C(C)CC[C@H]1C(C)(C)O2` [Ia6, (6aR,0aR)—N-(2-(dimethylamino)ethyl)-1-hydroxy-6,6,9-trimethyl-3-pentyl-6a,7,8,10a-tetrahydro-6H-benzo[c]chromene-2-carboxamide], in assay [1], the Inhibition is 54.46% and the half-maximal inhibitory concentration (IC50) was 9.1 µM.
Regarding `CCCCCc1cc2c(c(O)c1C(=O)NCCCN1CCOCC1)[C@@H]1C=C(C)CC[C@H]1C(C)(C)O2` [Ia9, (6aR,0aR)-1-hydroxy-6,6,9-trimethyl-N-(3-morpholinopropyl)-3-pentyl-6a,7,8,10a-tetrahydro-6H-benzo[c]chromene-2-carboxamide], the IC50 in assay [2] (setting [5]) turned out to be 7.36 µM; in assay [3] (Homo sapiens, Caco-2, 72 h, read-out: IC50 (absolute IC50)), 8.87 µM; in assay [1], 7.38 µM; in assay [4] (setting [5]), 9.94 µM. Besides, the Inhibition in assay [2] (TE-6, 72 hours, compounds 10 μM starting, STS 2 μM starting, 10-pt, 3-fold dilution) was 67.27%; in assay [3] (Caco-2, 72 hours, compounds 10 μM starting, STS 2 μM starting, 10-pt, 3-fold dilution), 60.81%; in assay [1] it was 64.62%; in assay [4] (PC-3, 72 hours, compounds 10 μM starting, STS 2 μM starting, 10-pt, 3-fold dilution), 61.13%.
